The target in this assay is T1, human SSAO (Homo sapiens, UniProt Q16853).
T1 construct: made in house
T1 sequence (Q16853 29-763 limits assumed): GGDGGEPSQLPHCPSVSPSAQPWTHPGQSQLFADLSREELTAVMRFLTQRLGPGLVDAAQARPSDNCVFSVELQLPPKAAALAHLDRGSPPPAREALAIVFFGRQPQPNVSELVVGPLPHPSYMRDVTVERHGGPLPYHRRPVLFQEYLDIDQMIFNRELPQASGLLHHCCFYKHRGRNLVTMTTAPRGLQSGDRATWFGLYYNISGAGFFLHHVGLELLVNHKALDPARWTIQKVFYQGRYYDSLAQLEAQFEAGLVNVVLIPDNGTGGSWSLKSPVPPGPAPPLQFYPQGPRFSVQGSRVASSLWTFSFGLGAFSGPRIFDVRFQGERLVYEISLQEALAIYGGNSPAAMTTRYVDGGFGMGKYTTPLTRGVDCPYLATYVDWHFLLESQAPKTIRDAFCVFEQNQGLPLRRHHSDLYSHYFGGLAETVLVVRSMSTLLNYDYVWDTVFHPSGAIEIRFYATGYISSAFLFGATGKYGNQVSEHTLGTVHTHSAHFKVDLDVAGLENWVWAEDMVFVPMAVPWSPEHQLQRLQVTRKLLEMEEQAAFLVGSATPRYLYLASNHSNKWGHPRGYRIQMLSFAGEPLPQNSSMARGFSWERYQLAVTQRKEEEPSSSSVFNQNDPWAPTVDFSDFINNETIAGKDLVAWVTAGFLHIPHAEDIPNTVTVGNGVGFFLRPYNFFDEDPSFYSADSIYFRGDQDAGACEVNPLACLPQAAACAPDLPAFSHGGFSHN
The assay is described as follows: SSAO enzyme inhibition assay (Amplex Red/HRP coupled, benzylamine substrate). Particulars: purified recombinantly expressed human SSAO; benzylamine 100 μM; about 60 minutes pre-incubation; room temperature. It counts as biochemical. The procedure:
Biological Assay of the SSAO Enzyme Inhibitors
All assays were performed in room temperature with purified recombinantly expressed human SSAO. Enzyme was prepared essentially as described in Öhman et al. (Protein Expression and Purification 2006, 46, 321-331). The enzyme activity was measured with benzylamine as substrate and utilized the production of hydrogen peroxide for detection. In a horseradish peroxidise (HRP) coupled reaction, hydrogen peroxide oxidation of 10-acetyl-3,7-dihydroxyphenoxazine produced resorufin, which is a highly fluorescent compound (Zhout and Panchuk-Voloshina. Analytical Biochemistry 1997, 253, 169-174; Amplex® Red Hydrogen Peroxide/peroxidise Assay kit, Invitrogen A22188).
Briefly, test compounds were dissolved in dimethyl sulfoxide (DMSO) to a concentration of 10 mM. Dose-response measurements were assayed by either creating 1:10 serial dilutions in DMSO to produce a 7 point curve or by making 1:3 serial dilutions in DMSO to produce 11 point curves. […] Fluorescence intensity was then measured at several time points (15 minutes, 20 minutes and 30 minutes) exciting at 544 nm and reading the emission at 590 nm). […] The inhibition was measured as % decrease of the signal compared to a control without inhibitor (only diluted DMSO). […] Data was fitted to a four parameter logistic model and IC50 values were calculated using the GraphPad Prism 4 or XLfit 4 programs.

By IC50 is commonly meant the concentration at which inhibition is half-maximal.

Take `Clc1ccc(-c2nn(C3CCNCC3)c3ccncc23)cc1` [Example 5, 3-(4-Chlorophenyl)-1-piperidin-4-yl-1H-pyrazolo[4,3-c]pyridine]: the IC50 was determined as 120 nM.

With `Cc1ccc(-c2nn(C3CCOCC3)c3ccncc23)cc1` [Example 3, 3-(4-Methylphenyl)-1-(tetrahydro-2H-pyran-4-yl)-1H-pyrazolo[4,3-c]pyridine], the IC50 is 89 nM.

These data come from patent publication US8633318B2, “Compounds for treatment or prevention of inflammation, an inflammatory disease, or an immune or an autoimmune disorder” (Proximagen Ltd, priority 2008, dated 2014).
